This is an account of results in patent publication US9243037B2, “Gramicidin a mutants that function as antibiotics with improved solubility and reduced toxicity” (Trustees of Boston College, priority 2011, dated 2016).

The nature of series [1]: Peptide binding onto membranes (Trp fluorescence). As to conditions: negatively charged POPC/POPG vesicles; in words.
In series [2] the test system is Streptococcus pyogenes (ATCC 19615). As to conditions: for MICs S. Pyogenes: ATCC 19615; for MIC relative to wild-type Gramicidin A: S. Pyogenes.
The nature of another series: physchem. Format: physicochemical. The procedure: Peptide solubility in 10 mM HEPES buffer with 1% DMSO was measured by monitoring tryptophan absorbance. A concentrated (6.0-8.0 mM) peptide stock solution in DMSO was diluted 100 times (5 μL of the stock into 500 jtl of 10 mM HEPES buffer, pH 7.0). The mixture was sonicated for 30 mins and then subject to centrifugation (14,000 rpm, 10 mins) to remove possible precipitate. The supernatant (400 μL) was transferred to a quartz cuvette and the peptide concentration was determined by tryptophan absorbance at 280 nm (ε=22760 M−1 cm-1). The UV/Vis spectra of the supernatant can be seen in FIG. 1 and FIG. 5.

The subject of series [3] is human red blood cells (hRBCs). Description: K+ leakage from hRBCs (flame atomic emission). Format: cell-based. The protocol: The rest of supernatant (1.2 mL) from each sample prepared as described in the hemoglobin leakage assay was transferred into a new sterile eppendorf tube and subject to the K+ concentration measurement using a flame-atomic emission spectrometer (λem=766.5 nm, Perkin Elmer Atomic absorption Spectrometer 3100, acetylene/air flame). Three readings were taken for each sample and averaged as final results. The fraction of K+ leakage from hRBCs was calculated as percentage K+ leaked=100·(I776.5,peptide−I776.5,DMSO)/(I776.5,complete lysis−I776.5,DMSO).

Series [4] deals with Bacillus subtilis (ATCC 663). As to conditions: for MICs B. Subtilius: ATCC 663; for MIC relative to wild-type Gramicidin A: B. subtilis.
The conditions of series [5]: Trp absorbance @ 280 nm; 10 mM PBS, pH 7.0, 1% DMSO; values taken from ref; cited from earlier work.
Series [6] has as its system Staphylococcus aureus (ATCC 6538). To be noted: for MICs S. Aureus: ATCC 6538; for MIC relative to wild-type Gramicidin A: S. Aureus.
Series [7] deals with human red blood cells (hRBCs). Description: Haemoglobin release from human red blood cells. The class given is cell-based. To be noted: for HC50 (50% haemoglobin leakage relative to 1% TritonX-100): red cells of human. The procedure: Fresh human red blood cells (hRBCs) were centrifuged at 3500 rpm and washed with PBS buffer until the supernatant was clear. The hRBCs were then resuspended and diluted to a final concentration of 1% (v/v) in PBS and used immediately. 15 μL of serial dilution (2-fold) of peptides in DMSO or DMSO alone as a negative control were added to 1.5 mL of hRBCs in PBS. The resulting mixture was gently shaken to mix well and incubated at 37° C. for 1 hr, followed by centrifugation at 3500 rpm for 10 min using tabletop centrifuge. Aliquots (50 μL) of the supernatant (in triplicates) were transferred into a sterile 96-well plate containing 50 μL of H2O in each well. Release of hemoglobin was monitored at 415 nm using a microtiter plate reader. Percentage hemolysis was calculated using percentage hemolysis=100·(A415, peptide-A415,DMSO)/(A415, complete hemolysis-A415, DMSO), where complete hemolysis is achieved by mixing hRBCs with 1% TritonX-100.

A short description of series [8]: Peptide binding onto membranes (Trp fluorescence). To be noted: for apparent dissociation constant (Kd) / binding: neutral POPC vesicles, in words.
Series [9] in a line: K+ release from liposomes, lipid not specified. As to conditions: in words. Format: biochemical. The protocol:
With the D-Lys residues incorporated towards the C-terminus, the gA peptide analogs described herein display amphipathic sequences. Since many amphipathic peptides are known to cause membrane damage through a detergent-like mechanism instead of forming specific channels,[19] it was further examined whether it is the case with the gA peptide analogs provided herein. Toward this end, the ion selectivity of gA-3, 4, and 5 was assessed by using liposomes encapsulating K+ and Tb3+ respectively. […] The wild type like channel structure of the D-Lys mutants is further supported by the fact that gA-5 and gA-WT share similar signatures in their circular dichroism spectra (FIG. 11). This exclusive leakage of monovalent cations presents a great advantage of the gA analog peptides described herein in comparison to the majority of AMPs, which often cause catastrophic membrane collapse to release all bacterial cellular content, leading to potential complications of over-stimulated immune response.
The K+ leakage from liposomes was determined by a potassium ion selective electrode (K-ISE, Cole-Parmer, Vernon Hills, Ill.). The electrode was calibrated each day before experiments. A liposome solution in Buffer A (2 mL, 500 μM POPC or POPC/POPG⊃10 mM HEPES, 150 mM KCl, pH 7.0) was stirred at constant speed and peptide at various concentration (1 μL in DMSO) was added accumulatively. Three minutes after each peptide addition, the K+ concentration was measured and reported as the K-ISE potential. At the end of each experiment, gA-WT stock (1 μL, 1 mM) was added to induce 100% K+ leakage. The potential reported by the K-ISE was plotted against peptide concentration after the background noise (caused by DMSO addition) was subtracted and normalized to 0-100%.

Series [10] is described as follows: Tb3+ leakage from liposomes, lipid not specified. Format: biochemical. To be noted: at peptide concentrations causing complete K+ release; in words.

SMILES strings stand for the structures. “Also recorded” adds a separate entry of the source.

Consider `CC(C)C[C@@H](NC(=O)[C@H](C)NC(=O)CNC(=O)[C@@H](NC=O)C(C)C)C(=O)N[C@@H](C)C(=O)N[C@@H](C(=O)N[C@H](C(=O)N[C@@H](C(=O)N[C@@H](Cc1c[nH]c2ccccc12)C(=O)N[C@H](CCCCN)C(=O)N[C@@H](Cc1c[nH]c2ccccc12)C(=O)N[C@H](CC(C)C)C(=O)N[C@@H](Cc1c[nH]c2ccccc12)C(=O)N[C@H](CC(C)C)C(=O)N[C@@H](Cc1c[nH]c2ccccc12)C(=O)NCCO)C(C)C)C(C)C)C(C)C` (racemic) [gA-1, formyl-V-G-A-dL-A-dV-V-dV-W-dK-W-dL-W-dL-W-NHCH2CH2OH], for which the “apparent dissociation constant (Kd) / binding” value in series [1] was “apparent Kd values close to that of gA-WT”. For the same compound, in [2], the “MICs S. Pyogenes” value is 0.16 µM and the “MIC relative to wild-type Gramicidin A” value was “equivalent to that of wild-type Gramicidin A”. Besides, in the series “physchem”, the “water solubility, fold higher than wild-type Gramicidin A” value is on record as ~200 fold. For the same compound, in series [3], the “KC50 (50% K+ ion leakage relative to 1% TritonX-100)” value is 0.01 µM and the “peptide concentration for 50% K+ ion leakage, fold greater than wild-type Gramicidin A” value is ~100 fold. Besides, in series [4], the “MICs B. Subtilius” value was determined as 5 µM and the “MIC relative to wild-type Gramicidin A” value was “equivalent to that of wild-type Gramicidin A”. Also, the “Sat. Conc, Lys series” value in [5] is 10 µM. Also, in series [6], the “MICs S. Aureus” value turned out to be 2.5 µM and the “MIC relative to wild-type Gramicidin A” value is “equivalent to that of wild-type Gramicidin A”. Moreover, the “HC50 (50% haemoglobin leakage relative to 1% TritonX-100)” value in series [7] was 5~10 μM. In [8], the “apparent dissociation constant (Kd) / binding” value was “apparent Kd values close to that of gA-WT”.
For `CC(C)C[C@@H](NC(=O)[C@H](C)NC(=O)CNC(=O)[C@@H](NC=O)C(C)C)C(=O)N[C@@H](C)C(=O)N[C@@H](C(=O)N[C@H](C(=O)N[C@@H](C(=O)N[C@@H](Cc1c[nH]c2ccccc12)C(=O)N[C@H](CC(C)C)C(=O)N[C@@H](Cc1c[nH]c2ccccc12)C(=O)N[C@H](CC(C)C)C(=O)N[C@@H](Cc1c[nH]c2ccccc12)C(=O)N[C@H](CCCCN)C(=O)N[C@@H](Cc1c[nH]c2ccccc12)C(=O)NCCO)C(C)C)C(C)C)C(C)C` (racemic) [gA-2, formyl-V-G-A-dL-A-dV-V-dV-W-dL-W-dL-W-dK-W-NHCH2CH2OH], the “apparent dissociation constant (Kd) / binding” value in series [1] is recorded as “apparent Kd values close to that of gA-WT”. Besides, in series [2], the “MICs S. Pyogenes” value stood at 0.16 µM and the “MIC relative to wild-type Gramicidin A” value is recorded as “equivalent to that of wild-type Gramicidin A”. Also, the “water solubility, fold higher than wild-type Gramicidin A” value in “physchem” is ~200 fold. Besides, in series [3], the “KC50 (50% K+ ion leakage relative to 1% TritonX-100)” value amounted to 0.01 µM and the “peptide concentration for 50% K+ ion leakage, fold greater than wild-type Gramicidin A” value is ~100 fold. Besides, in series [4], the “MICs B. Subtilius” value stood at 5 µM and the “MIC relative to wild-type Gramicidin A” value is reported as “equivalent to that of wild-type Gramicidin A”. Moreover, the “Sat. Conc, Lys series” value in [5] was 11 µM. Moreover, in series [6], the “MICs S. Aureus” value was 2.5 µM and the “MIC relative to wild-type Gramicidin A” value was “equivalent to that of wild-type Gramicidin A”. Also, in [7], the “HC50 (50% haemoglobin leakage relative to 1% TritonX-100)” value is listed as 5~10 μM. In addition, the “apparent dissociation constant (Kd) / binding” value in series [8] is recorded as “apparent Kd values close to that of gA-WT”.
Turning to `CC(C)C[C@@H](NC(=O)[C@H](C)NC(=O)CNC(=O)[C@@H](NC=O)C(C)C)C(=O)N[C@@H](C)C(=O)N[C@@H](C(=O)N[C@H](C(=O)N[C@@H](C(=O)N[C@@H](Cc1c[nH]c2ccccc12)C(=O)N[C@H](CCCCN)C(=O)N[C@@H](Cc1c[nH]c2ccccc12)C(=O)N[C@H](CC(C)C)C(=O)N[C@@H](Cc1c[nH]c2ccccc12)C(=O)N[C@H](CCCCN)C(=O)N[C@@H](Cc1c[nH]c2ccccc12)C(=O)NCCO)C(C)C)C(C)C)C(C)C` (racemic) [gA-3, formyl-V-G-A-dL-A-dV-V-dV-W-dK-W-dL-W-dK-W-NHCH2CH2OH], in [1], the “apparent dissociation constant (Kd) / binding” value is “comparable to that of gA-WT”. Also, in series [2], the “MICs S. Pyogenes” value was determined as 0.32 µM and the “MIC relative to wild-type Gramicidin A” value is ~2 fold. The “water solubility, fold higher than wild-type Gramicidin A” value in the series “physchem” was ~740 fold. The “K+ release from LUVs” value in series [9] is given as “potent activity in K+ release”. In series [3], the “KC50 (50% K+ ion leakage relative to 1% TritonX-100)” value is recorded as 5~10 μM and the “peptide concentration for 50% K+ ion leakage, fold greater than wild-type Gramicidin A” value was “greater than 10^5 fold”. In addition, in series [4], the “MICs B. Subtilius” value is 5 µM and the “MIC relative to wild-type Gramicidin A” value is on record as ~2 fold. Also, the “Sat. Conc, Lys series” value in series [5] was 38 µM. Further, in [6], the “MICs S. Aureus” value is 5 µM and the “MIC relative to wild-type Gramicidin A” value is ~2 fold. Further, the “Tb3+ leakage from LUVs” value in series [10] is reported as “essentially no Tb3+ leakage; also recorded: behave similarly to gA-5”. Besides, in series [7], the “haemoglobin leakage from hRBCs” value is “not enough to cause 50% haemoglobin leakage” and the “HC50 (50% haemoglobin leakage relative to 1% TritonX-100)” value is >70 µM. Further, in series [8], the “reduced affinity to POPC vesicles” value is ~70 folds.
`CC(C)C[C@@H](NC(=O)[C@H](C)NC(=O)CNC(=O)[C@@H](NC=O)C(C)C)C(=O)N[C@@H](C)C(=O)N[C@@H](C(=O)N[C@H](C(=O)N[C@@H](C(=O)N[C@@H](Cc1c[nH]c2ccccc12)C(=O)N[C@H](CCCCN)C(=O)N[C@@H](Cc1c[nH]c2ccccc12)C(=O)N[C@H](CCCCN)C(=O)N[C@@H](Cc1c[nH]c2ccccc12)C(=O)N[C@H](CC(C)C)C(=O)N[C@@H](Cc1c[nH]c2ccccc12)C(=O)NCCO)C(C)C)C(C)C)C(C)C` (racemic) [gA-4, formyl-V-G-A-dL-A-dV-V-dV-W-dK-W-dK-W-dL-W-NHCH2CH2OH]: in [1], the “apparent dissociation constant (Kd) / binding” value is on record as “comparable to that of gA-WT”. In addition, in [2], the “MICs S. Pyogenes” value was 0.16 µM and the “MIC relative to wild-type Gramicidin A” value is “equivalent to or ˜2-fold higher”. Besides, the “water solubility, fold higher than wild-type Gramicidin A” value in the series “physchem” is recorded as ~740 fold. The “K+ release from LUVs” value in series [9] was “potent activity in K+ release”. Besides, in series [3], the “KC50 (50% K+ ion leakage relative to 1% TritonX-100)” value is listed as 5~10 μM and the “peptide concentration for 50% K+ ion leakage, fold greater than wild-type Gramicidin A” value is “over 10^5 fold”. Besides, in [4], the “MICs B. Subtilius” value was found to be 2.5 µM and the “MIC relative to wild-type Gramicidin A” value is reported as “equivalent to or ˜2-fold higher”. The “Sat. Conc, Lys series” value in [5] was 39 µM. In addition, in series [6], the “MICs S. Aureus” value worked out at 5 µM and the “MIC relative to wild-type Gramicidin A” value was “equivalent to or ˜2-fold higher”. In [10], the “Tb3+ leakage from LUVs” value is recorded as “essentially no Tb3+ leakage; also recorded: behave similarly to gA-5”. For the same compound, in series [7], the “haemoglobin leakage from hRBCs” value is recorded as “not enough to cause 50% haemoglobin leakage” and the “HC50 (50% haemoglobin leakage relative to 1% TritonX-100)” value was >100 µM. The “reduced affinity to POPC vesicles” value in series [8] is ~70 folds.
